“Also recorded” adds a separate entry of the source.
Columns and labels:
D. suzukii [1] = test: Airborne toxicity petri dish assay, adult flies exposed to VOC vapours (FIG. 1A); assay type: in vivo, Drosophila suzukii; conditions: for LD50 (expected concentration at which 50% of the flies die): D. suzukii adults, vapours from solution in paraffin oil, within an hour; for T50 (time at which 50% of the flies were dead) / T50: D. suzukii; for T50: 10% vol; for airborne toxicity/lethality in the initial screen with a high dose (words): VOC at 10 M in paraffin oil, vapour exposure, 1 hour; for specificity of toxicity, D. suzukii versus D. melanogaster: at least at the 3, 5 and 10% vol concentrations
Description: A selection of compounds according to the invention were tested for airborne toxicity to D. suzukii by exposing a population of adult D. suzukii flies to the vapours of the compound using an experimental set up as shown on FIG. 1A.
(§1) In particular, adult flies 2 were exposed to compositions 4 comprising one or more of a selection of VOCs according to the invention or a comparative example, in a petri dish 6. The compositions 4 were loaded onto the lid 6a of the petri dish 6 and the flies were placed into the base 6b of the dish, which was then covered by a sheet of plastic mesh netting 8 to avoid direct contact of the flies 2 with the compositions 4, before replacing the lid 6a.
[…] Four drops of 50 microlitres were dispensed into reinforcement rings (not shown) fixed on the inner surface of the petri dish lid 6a.
The experimental set up used was as described in relation to FIG. 1A.
The data is shown as averages±SEM based on 3 to 6 trials for each condition.

D. biarmipes = test: Airborne toxicity petri dish assay, adult flies (FIG. 1A); assay type: in vivo; conditions: 10% vol
From the text: as §1, with “6a. The onset of paralysis/loss of locomotion control, ultimately resulting in death of the flies 2, was monitored over a period of 1 hour or until all flies 2 were dead, determined when fly wings were vertical (similar to the protocol described in Legal et al. 1992 and 1994).” for “6a.”
(§2) Adult flies of Drosophila species were exposed to a 10% vol solution of (E)-2-hexenal and 10% vol solution of methyl benzoate, in an experimental set up as explained in relation to FIG. 1A. For each VOC, species of the suzukii complex (D. suzukii, D. biarmipes), melanogaster complex (D. melanogaster, D. simulans, D. sechellia), and erecta+yakuba complex (D. erecta, D. yakuba, D. santomea) of the melanogaster species group were compared. 5-10 mixed female and male adults were used per trial. FIGS. 4A and B show the results of these experiments, respectively for (E)-2-hexenal (FIG. 4A) and methyl benzoate (FIG. 4B). The data shown represents the average±SEM of the proportion of dead flies as a function of time, over 3 to 6 assays per condition.

D. erecta = test: as above; assay type: in vivo; conditions: 10% vol
From the text: as §1, with “6a. The onset of paralysis/loss of locomotion control, ultimately resulting in death of the flies 2, was monitored over a period of 1 hour or until all flies 2 were dead, determined when fly wings were vertical (similar to the protocol described in Legal et al. 1992 and 1994).” for “6a.”
as §2

D. sechellia = test: as above; assay type: in vivo; conditions: 10% vol
From the text: as §1, with “6a. The onset of paralysis/loss of locomotion control, ultimately resulting in death of the flies 2, was monitored over a period of 1 hour or until all flies 2 were dead, determined when fly wings were vertical (similar to the protocol described in Legal et al. 1992 and 1994).” for “6a.”
as §2

D. simulans = test: as above; assay type: in vivo; conditions: 10% vol
From the text: as §1, with “6a. The onset of paralysis/loss of locomotion control, ultimately resulting in death of the flies 2, was monitored over a period of 1 hour or until all flies 2 were dead, determined when fly wings were vertical (similar to the protocol described in Legal et al. 1992 and 1994).” for “6a.”
as §2

D. yakuba = test: as above; assay type: in vivo; conditions: 10% vol
From the text: as §1, with “6a. The onset of paralysis/loss of locomotion control, ultimately resulting in death of the flies 2, was monitored over a period of 1 hour or until all flies 2 were dead, determined when fly wings were vertical (similar to the protocol described in Legal et al. 1992 and 1994).” for “6a.”
as §2

[2] = tested on: honeybees (Apis mellifera); test: Airborne toxicity on honeybees in the petri dish assay; assay type: in vivo; conditions: adult bees exposed for one hour; for toxicity to honey bees: 10% vol
Description: The toxicity of (E)-2-hexenal and methyl benzoate volatiles was tested at 100% (pure) and 10% vol. concentrations on honeybees (Apis mellifera) in the petri dish assay of FIG. 1A. Adult bees were exposed for one hour and the proportion of death across all trials (5 trials with each of the pure VOCs and 10 trials for each of the 10% vol VOC assays) was calculated. The results of these experiments are shown on FIG. 8.
Honeybee foragers were obtained from a large bee keeping company (Agroquímica Ollé, http://agroquimicaolle.com). Bees were held in an incubator at 22 degrees for a few days and provided with ad libitum sugar water.

D. suzukii [3] = test: Positional and ovipositional preference on food substrate plated with compound; assay type: in vivo, Drosophila suzukii; conditions: for positional preference/avoidance of adult flies: food plated with compound vs blank, monitored over 5 hours
Description: Adult flies 200 are placed in a plastic box 600 with mesh-netting 800 in the lid to allow aeration. Two food sources 400a and 400b (for example petri dishes containing molasses-apple juice agar substrates) are placed into the box 600, of which one 600a is plated with a compound to be tested, and the other 600b is left blank as a control.
Using this experimental set up and pure (E)-2-hexenal or methyl benzoate, the positional preference of the flies was monitored over 5 hours. The ovipositional preference was measured after 24 hours by counting the number of eggs laid on either plate. […] The same experimental set up was used to test for positional and ovipositional preference using different concentrations of (E)-2-hexenal, i.e. 1.2% vol, 3.4% vol, 11.6% vol and 34% vol. The results of these assays are shown on FIG. 7C. All data shown represents the mean+S.E.M. over 2 to 6 trials per condition. In FIG. 7C, deviations marked by a star are associated with a unpaired t-test p-value below 0.05 following a one-way ANOVA test with F(4,22)=3.987 (p=0.017).
Petri dishes (∅ 6 cm) filled with 10 ml of a molasses-apple juice-agar medium acted as food substrate. These were plated with methyl benzoate or (E)-2-hexenal. Two Petri dishes were placed inside a plastic box (32×22×12 cm) with a mesh netting in the lid. One dish was plated with a thin layer of pure odour (1.8 μl (E)-2-hexenal or 0.9 μl methyl benzoate when used pure, or 50 μl of (E)-2-hexenal when used in diluted solutions), and the other was left blank as a control. More (E)-2-hexenal was used because its vapour pressure is 4 times lower than that of methyl benzoate and, thus, is prone to dissipate faster. 20 mixed sex adult flies were placed inside the plastic box and monitored every 0.5 hours, over a period of 5 hours, to assess their positional preference by counting the number of flies positioned on either plate. After 24 hours, their ovipositional preference was monitored by counting the number of eggs laid on either dish. Flies were cooled on ice for handling and discarded after each trial.

SMILES | lethality as a function of the sex of the flies (D. suzukii [1]; 5% vol in paraffin solution, adult D. suzukii, males vs females) | LD50 (expected concentration at which 50% of the flies die) (D. suzukii [1]) | T50 (time at which 50% of the flies were dead) (D. suzukii [1]; 1% concentration) | T50 (D. suzukii [1]) | T50 (time at which 50% of the flies were dead) (D. suzukii [1]; concentration 5% vol) | T50 (time at which 50% of the flies were dead) (D. suzukii [1]; concentration 10% vol) | T50 (time at which 50% of the flies were dead) (D. suzukii [1]; concentration 20% vol) | T50 (time at which 50% of the flies were dead) (D. suzukii [1]; concentration 100% vol) | airborne toxicity/lethality in the initial screen with a high dose (words) (D. suzukii [1]) | specificity of toxicity, D. suzukii versus D. melanogaster (D. suzukii [1]) | T50 (D. biarmipes) | T50 (D. erecta) | T50 (D. sechellia) | T50 (D. simulans) | T50 (D. yakuba) | toxicity to honey bees [2] | toxicity to honey bees (rate) ([2]; 100% (pure) compound) | positional preference/avoidance of adult flies (D. suzukii [3]) | concentration from which flies avoid laying their eggs on the plated side (D. suzukii [3]; tested 1.2, 3.4, 11.6 and 34% vol, eggs counted after 24 hours) | ovipositional preference (egg-laying) (D. suzukii [3]; food plated with pure compound vs blank, eggs counted after 24 hours)
CCC/C=C/C=O [(E)-2-hexenal] | males displayed more sensitivity | 3 % vol | not lethal | 4.1 min | 9.3 min | 4.1 min | 1.6 min | 1.2 min | highly toxic; also recorded: showed toxicity | specific toxicity towards D. suzukii | 15.4 min | 5.3 min | 22.7 min | 9 min | 8.7 min | low levels of toxicity | significantly faster rate than pure methyl benzoate | relatively weak | ≥ 3.4 % vol | –
COC(=O)c1ccccc1 [methyl benzoate, Methyl benzoate] | – | 3 % vol | not lethal | 5.9 min | 9.8 min | 5.9 min | 4.2 min | 2.8 min | highly toxic; also recorded: showed toxicity | specific toxicity towards D. suzukii | 9.6 min | 13.8 min | 34 min | 9.4 min | 11 min | low levels of toxicity | – | stronger avoidance response | – | strong egg-laying deterrent
